Experimental data from publication PMC5421785, “Citrullination only infrequently impacts peptide binding to HLA class II MHC” (PLoS ONE, 2017).
Where two headings read alike, the source gives them in different places. Square brackets hold non-standard residues; d marks the D form. Peptide text beside a SMILES is read from it. Cit = NC(=O)NCCC[C@H](N)C(=O)O

Experiments:
HLA-DRB1*01:01 = target: T1, HLA-DRB1*01:01 (Homo sapiens, UniProt P01903+P01911, A100R/D57E/F55L/F60I/F76Y/I96L/L162R/M171V/P40L/Q125E/R42F/V115G/Y59C); assay: HLA class II peptide binding, inhibition of radiolabeled peptide binding to purified MHC
T1 construct: EBV transformed homozygous cell lines were used as sources of MHC molecules; endogenous in cells; host or cells: EBV transformed homozygous cell lines

HLA-DRB1*04:01 = target: T2, HLA-DRB1*04:01 (Homo sapiens, UniProt P01903+P01911, A100K/A169T/F76Y/I96L/K127E/L162R/M171V/N62H/P40V/Q125Y/R42H/S133A/S149N/S66Y/V115G/V209L/W38E); assay: as above
T2 construct: EBV transformed homozygous cell lines were used as sources of MHC molecules; endogenous in cells; host or cells: EBV transformed homozygous cell lines

[1] = citrullinated 15-mer (X), purified MHC, inhibition of radiolabeled peptide binding, dash = IC50 >40,000 nM, read-out: DRB1*01:01 binding capacity, Cit peptide (IC50 nM)
[2] = citrullinated 15-mer (X), purified MHC, inhibition of radiolabeled peptide binding, dash = IC50 >40,000 nM, read-out: DRB1*04:01 binding capacity, Cit peptide (IC50 nM)
[3] = citrullinated 15-mer peptide (X = citrulline), purified HLA-DRB1*01:01, read-out: DRB1*01:01 binding capacity, Cit peptide (IC50 nM)
[4] = citrullinated 15-mer peptide (X = citrulline), purified HLA-DRB1*04:01, read-out: DRB1*04:01 binding capacity, Cit peptide (IC50 nM)

SMILES | IC50 (HLA-DRB1*01:01; [1]) | IC50 (HLA-DRB1*04:01; [2]) | IC50 (HLA-DRB1*01:01; [3]) | IC50 (HLA-DRB1*04:01; [4]) | also measured
CC(C)C[C@H](NC(=O)[C@H](CCCNC(=N)N)NC(=O)[C@@H](NC(=O)[C@H](C)NC(=O)[C@H](CO)NC(=O)[C@H](CO)NC(=O)[C@H](CCCNC(N)=O)NC(=O)[C@@H](NC(=O)[C@H](C)NC(=O)[C@H](Cc1ccc(O)cc1)NC(=O)[C@@H](NC(=O)CNC(=O)CNC(=O)[C@@H]1CCCN1C(=O)[C@@H](N)CO)C(C)C)[C@@H](C)O)C(C)C)C(=O)O [SPGGVYATXSSAVRL] (H-SPGGVYAT[Cit]SSAVRL-OH) | 6.6 nM | 329 nM | – | – | –
CC(C)C[C@H](NC(=O)[C@H](CO)NC(=O)[C@H](Cc1ccc(O)cc1)NC(=O)[C@@H](NC(=O)[C@H](CCCNC(N)=O)NC(=O)[C@@H](NC(=O)[C@H](CO)NC(=O)[C@@H](NC(=O)[C@@H](NC(=O)[C@@H](NC(=O)[C@H](Cc1ccc(O)cc1)NC(=O)[C@H](CO)NC(=O)[C@H](CCCNC(=N)N)NC(=O)[C@H](CO)NC(=O)[C@@H](N)CO)C(C)C)[C@@H](C)O)[C@@H](C)O)[C@@H](C)O)[C@@H](C)O)C(=O)O [SSRSYVTTSTXTYSL] (H-SSRSYVTTST[Cit]TYSL-OH) | 85 nM | 109 nM | – | – | –
CC(C)C[C@H](NC(=O)[C@H](CO)NC(=O)[C@H](Cc1ccc(O)cc1)NC(=O)[C@@H](NC(=O)[C@H](CCCNC(=N)N)NC(=O)[C@@H](NC(=O)[C@H](CO)NC(=O)[C@@H](NC(=O)[C@@H](NC(=O)[C@@H](NC(=O)[C@H](Cc1ccc(O)cc1)NC(=O)[C@H](CO)NC(=O)[C@H](CCCNC(N)=O)NC(=O)[C@H](CO)NC(=O)[C@@H](N)CO)C(C)C)[C@@H](C)O)[C@@H](C)O)[C@@H](C)O)[C@@H](C)O)C(=O)O [SSXSYVTTSTRTYSL] (H-SS[Cit]SYVTTSTRTYSL-OH) | 93 nM | 357 nM | – | – | –
CC(C)C[C@H](NC(=O)[C@H](CO)NC(=O)[C@H](CCC(N)=O)NC(=O)[C@@H](NC(=O)[C@H](CCC(N)=O)NC(=O)[C@H](CCCNC(N)=O)NC(=O)[C@H](CCCNC(=N)N)NC(=O)[C@H](Cc1ccc(O)cc1)NC(=O)[C@H](CCC(=O)O)NC(=O)[C@@H](NC(=O)[C@@H](N)CO)[C@@H](C)O)C(C)C)C(=O)N[C@H](C(=O)N[C@@H](CS)C(=O)N[C@@H](CCC(=O)O)C(=O)N[C@H](C(=O)O)C(C)C)[C@@H](C)O [STEYRXQVQSLTCEV] (H-STEYR[Cit]QVQSLTCEV-OH) | – | – | 158 nM | 860 nM | –
CC(C)C[C@H](NC(=O)[C@H](CO)NC(=O)[C@H](CCC(N)=O)NC(=O)[C@@H](NC(=O)[C@H](CCC(N)=O)NC(=O)[C@H](CCCNC(=N)N)NC(=O)[C@H](CCCNC(N)=O)NC(=O)[C@H](Cc1ccc(O)cc1)NC(=O)[C@H](CCC(=O)O)NC(=O)[C@@H](NC(=O)[C@@H](N)CO)[C@@H](C)O)C(C)C)C(=O)N[C@H](C(=O)N[C@@H](CS)C(=O)N[C@@H](CCC(=O)O)C(=O)N[C@H](C(=O)O)C(C)C)[C@@H](C)O [STEYXRQVQSLTCEV] (H-STEY[Cit]RQVQSLTCEV-OH) | – | – | 97 nM | 1510 nM | –
CC(C)C[C@H](NC(=O)[C@H](C)NC(=O)[C@H](C)NC(=O)[C@@H](N)[C@@H](C)O)C(=O)N[C@@H](CCCNC(=N)N)C(=O)N[C@@H](CC(=O)O)C(=O)N[C@H](C(=O)N[C@@H](CCCNC(N)=O)C(=O)N[C@@H](CCC(N)=O)C(=O)N[C@@H](CCC(N)=O)C(=O)N[C@@H](Cc1ccc(O)cc1)C(=O)N[C@@H](CCC(=O)O)C(=O)N[C@@H](CO)C(=O)N[C@H](C(=O)N[C@@H](C)C(=O)O)C(C)C)C(C)C [TAALRDVXQQYESVA] (H-TAALRDV[Cit]QQYESVA-OH) | 896 nM | 7160 nM | – | – | –
CC(C)C[C@H](NC(=O)[C@H](C)NC(=O)[C@H](C)NC(=O)[C@@H](N)[C@@H](C)O)C(=O)N[C@@H](CCCNC(N)=O)C(=O)N[C@@H](CC(=O)O)C(=O)N[C@H](C(=O)N[C@@H](CCCNC(=N)N)C(=O)N[C@@H](CCC(N)=O)C(=O)N[C@@H](CCC(N)=O)C(=O)N[C@@H](Cc1ccc(O)cc1)C(=O)N[C@@H](CCC(=O)O)C(=O)N[C@@H](CO)C(=O)N[C@H](C(=O)N[C@@H](C)C(=O)O)C(C)C)C(C)C [TAALXDVRQQYESVA] (H-TAAL[Cit]DVRQQYESVA-OH) | 956 nM | 8760 nM | – | – | –
CC[C@H](C)[C@H](NC(=O)[C@H](CC(N)=O)NC(=O)[C@H](CCC(N)=O)NC(=O)[C@H](CO)NC(=O)CNC(=O)[C@H](CCC(=O)O)NC(=O)[C@@H](NC(=O)[C@H](CO)NC(=O)[C@H](CC(C)C)NC(=O)[C@H](CC(C)C)NC(=O)[C@H](CCCNC(N)=O)NC(=O)[C@H](CC(C)C)NC(=O)[C@H](Cc1ccccc1)NC(=O)[C@@H](N)[C@@H](C)O)[C@@H](C)O)C(=O)N[C@H](C(=O)O)[C@@H](C)O [TFLXLLSTEGSQNIT] (H-TFL[Cit]LLSTEGSQNIT-OH) | – | – | – | – | IC50 (HLA-DRB1*01:01; citrullinated peptide as listed (X at Cit position), read-out: DRB1*01:01 binding capacity Cit peptide (IC50 nM)): 5.6 nM; IC50 (HLA-DRB1*04:01; citrullinated peptide as listed (X at Cit position), read-out: DRB1*04:01 binding capacity Cit peptide (IC50 nM)): 55 nM
CC(C)[C@H](NC(=O)[C@H](CCCNC(N)=O)NC(=O)CNC(=O)[C@H](C)NC(=O)[C@H](C)NC(=O)CNC(=O)[C@@H]1CCCN1C(=O)[C@H](Cc1ccccc1)NC(=O)CNC(=O)[C@@H](N)[C@@H](C)O)C(=O)NCC(=O)N1CCC[C@H]1C(=O)N1CCC[C@H]1C(=O)NCC(=O)N[C@@H](CO)C(=O)O [TGFPGAAGXVGPPGS] (H-TGFPGAAG[Cit]VGPPGS-OH) | – | – | 3470 nM | > 40000 nM | –
C[C@H](NC(=O)CNC(=O)[C@@H]1CCCN1C(=O)[C@@H]1CCCN1C(=O)CNC(=O)[C@H](CCC(N)=O)NC(=O)[C@H](C)NC(=O)CNC(=O)[C@H](CCCNC(N)=O)NC(=O)[C@H](C)NC(=O)CNC(=O)[C@H](CCCCN)NC(=O)[C@@H]1CCCN1C(=O)CNC(=O)[C@@H](N)[C@@H](C)O)C(=O)O [TGPKGAXGAQGPPGA] (H-TGPKGA[Cit]GAQGPPGA-OH) | – | – | 2690 nM | > 40000 nM | –
CC[C@H](C)[C@H](NC(=O)[C@H](CC(C)C)NC(=O)[C@H](CC(C)C)NC(=O)[C@@H](NC(=O)[C@H](CCCNC(=N)N)NC(=O)[C@H](CCCCN)NC(=O)[C@H](CO)NC(=O)[C@H](Cc1c[nH]cn1)NC(=O)[C@@H](N)[C@@H](C)O)[C@@H](C)O)C(=O)N[C@@H](CCCCN)C(=O)N[C@H](C(=O)N[C@H](C(=O)N[C@@H](CCC(=O)O)C(=O)N[C@H](C(=O)N[C@@H](CCCNC(N)=O)C(=O)O)[C@@H](C)O)C(C)C)[C@@H](C)O [THSKRTLLIKTVETX] (H-THSKRTLLIKTVET[Cit]-OH) | – | – | 310 nM | 6020 nM | –
CC[C@H](C)[C@H](NC(=O)[C@H](CC(C)C)NC(=O)[C@H](CC(C)C)NC(=O)[C@@H](NC(=O)[C@H](CCCNC(N)=O)NC(=O)[C@H](CCCCN)NC(=O)[C@H](CO)NC(=O)[C@H](Cc1c[nH]cn1)NC(=O)[C@@H](N)[C@@H](C)O)[C@@H](C)O)C(=O)N[C@@H](CCCCN)C(=O)N[C@H](C(=O)N[C@H](C(=O)N[C@@H](CCC(=O)O)C(=O)N[C@H](C(=O)N[C@@H](CCCNC(=N)N)C(=O)O)[C@@H](C)O)C(C)C)[C@@H](C)O [THSKXTLLIKTVETR] (H-THSK[Cit]TLLIKTVETR-OH) | – | – | 176 nM | 6430 nM | –
CC[C@H](C)[C@H](NC(=O)[C@H](CCC(=O)O)NC(=O)[C@H](CC(=O)O)NC(=O)[C@H](CCC(N)=O)NC(=O)[C@H](CC(C)C)NC(=O)[C@H](CCCNC(N)=O)NC(=O)CNC(=O)[C@@H](NC(=O)[C@@H](N)[C@@H](C)O)[C@@H](C)CC)C(=O)N[C@@H](CCC(N)=O)C(=O)N[C@@H](CC(N)=O)C(=O)N[C@@H](CCSC)C(=O)N[C@@H](CCCCN)C(=O)N[C@@H](CCC(=O)O)C(=O)N[C@@H](CCC(=O)O)C(=O)O [TIGXLQDEIQNMKEE] (H-TIG[Cit]LQDEIQNMKEE-OH) | – | – | > 40000 nM | 31800 nM | –
CC[C@H](C)[C@H](NC(=O)[C@@H](NC(=O)[C@H](CCC(N)=O)NC(=O)CNC(=O)[C@H](CC(=O)O)NC(=O)[C@H](CCCNC(N)=O)NC(=O)[C@@H](NC(=O)[C@H](CCC(=O)O)NC(=O)[C@@H](NC(=O)[C@@H](NC(=O)[C@H](CCCCN)NC(=O)[C@@H](NC(=O)[C@H](CC(C)C)NC(=O)[C@H](CC(C)C)NC(=O)[C@@H](N)[C@@H](C)O)[C@@H](C)CC)[C@@H](C)O)C(C)C)[C@@H](C)O)C(C)C)C(=O)O [TLLIKTVETXDGQVI] (H-TLLIKTVET[Cit]DGQVI-OH) | – | – | 2120 nM | 2260 nM | –
CC(C)C[C@H](NC(=O)[C@H](CCC(=O)O)NC(=O)[C@H](CCC(N)=O)NC(=O)[C@H](CC(C)C)NC(=O)[C@H](CCC(=O)O)NC(=O)[C@@H](NC(=O)[C@H](CCCCN)NC(=O)[C@H](CCC(=O)O)NC(=O)[C@H](CC(N)=O)NC(=O)[C@@H](N)[C@@H](C)O)C(C)C)C(=O)N[C@@H](CC(N)=O)C(=O)N[C@@H](CC(=O)O)C(=O)N[C@@H](CCCNC(N)=O)C(=O)N[C@@H](Cc1ccccc1)C(=O)N[C@@H](C)C(=O)O [TNEKVELQELNDXFA] (H-TNEKVELQELND[Cit]FA-OH) | 5570 nM | > 40000 nM | – | – | –
CSCC[C@H](NC(=O)[C@H](CCC(=O)O)NC(=O)[C@H](CCCNC(N)=O)NC(=O)[C@H](CCSC)NC(=O)[C@H](CCC(N)=O)NC(=O)[C@H](CCCNC(=N)N)NC(=O)[C@H](CCC(=O)O)NC(=O)[C@H](CC(C)C)NC(=O)[C@H](CO)NC(=O)[C@H](CCC(=O)O)NC(=O)[C@H](CC(N)=O)NC(=O)[C@@H](N)[C@@H](C)O)C(=O)N[C@@H](CCC(=O)O)C(=O)N[C@@H](CCC(=O)O)C(=O)N[C@@H](CC(N)=O)C(=O)O [TNESLERQMXEMEEN] (H-TNESLERQM[Cit]EMEEN-OH) | – | – | 29700 nM | > 40000 nM | –
